Reference: US9428504B2, “7-hydroxy-spiropipiperidine indolinyl antagonists of P2Y1 receptor” (BRISTOL-MYERS SQUIBB COMPANY, priority 2012, dated 2016)

What was measured:
[1] = tested on: human platelet rich plasma (PRP); experiment: ADP induced platelet aggregation assay; conditions: Homo sapiens, Platelet, read-out: PA IC50 (μM) @ 10 μM ADP, platelet aggregation induced by 10 μM ADP, human PRP
Method: The ability of P2Y1 antagonists covered in the present invention to inhibit platelet aggregation induced by 10 μM ADP was tested using human platelet rich plasma (PRP) as described in Platelet Protocols: Research and Clinical Laboratory Procedures (White, M. M. et al., Academic Press (1999)). Human blood was collected in 30 μM (final concentration in blood) argatroban (GSK) as the anticoagulant at a ratio of 1 ml per 9 ml of blood. The PRP was isolated by centrifugation at 170 g for 12 minutes. The platelet poor plasma (PPP) was used as the blank for optical aggregometry. Compounds of the present invention in DMSO solution was preincubated with 250 μl PRP at 37° C. for 1 minute with stirring speed of 1000 rpm. Aggregation was initiated by addition of 2.5 μl of 1 mM ADP (Chrono-log, Havertown, Pa.) for a final ADP concentration of 10 μM. Platelet aggregation was monitored using Optical Aggregometer (Chrono-log, Havertown, Pa.) and the area under the curve (AUC) at 5 minute was measured. IC50 was calculated using vehicle control as 0% inhibition.

[2] = biological target: cloned human P2Y1 receptors (Homo sapiens (Human), UniProt P47900); experiment: Binding Assay B: Scintillation Proximity Assay (SPA) for P2Y1 binding; conditions: SPA, [33P] 2MeS-ADP displacement; read-out: P2Y1 Ki (nM) using binding assay B
Procedure, shortened: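 Membranes with ~15 fmol receptor (1.7 μg total protein) incubated with 0.3 nM [^33P]-labelled radioligand for 1 h at room temperature to completion. After centrifugation and removal of aqueous phase, bound radioactivity read by scintillation proximity; inhibition of radioligand binding measured.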

Sequence of cloned human P2Y1 receptors (P47900 whole entry): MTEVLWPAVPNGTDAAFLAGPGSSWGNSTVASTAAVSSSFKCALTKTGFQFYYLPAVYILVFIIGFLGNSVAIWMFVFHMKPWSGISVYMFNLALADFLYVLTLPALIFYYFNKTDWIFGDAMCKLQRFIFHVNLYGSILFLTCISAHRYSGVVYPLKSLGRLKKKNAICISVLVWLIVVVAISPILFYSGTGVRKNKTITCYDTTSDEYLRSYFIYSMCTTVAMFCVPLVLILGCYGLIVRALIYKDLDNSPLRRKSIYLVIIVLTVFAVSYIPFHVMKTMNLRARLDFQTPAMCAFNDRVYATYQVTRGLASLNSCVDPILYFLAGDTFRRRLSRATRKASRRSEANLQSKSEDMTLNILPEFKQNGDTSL

SMILES | IC50 [1] | Ki [2]
CC(C)(C)CN1CCC2(CC1)CN(c1ccccc1NC(=O)Nc1csc(Cl)n1)c1c(O)ccc(-c3nc4ccc(Cl)cc4s3)c12 [Example 113, 1-(2-(4-(6-Chlorobenzo[d]thiazol-2-yl)-7-hydroxy-1′-neopentylspiro[indoline-3,4′-piperidin]-1-yl)phenyl)-3-(2-chlorothiazol-4-yl)urea] | 0.4 µM | 7.1 nM
CC(C)(C)CN1CCC2(CC1)CN(c1ccccc1NC(=O)Nc1csc(Cl)n1)c1c(O)ccc(-c3nc4ccc(F)cc4s3)c12 [Example 114, 1-(2-Chlorothiazol-4-yl)-3-(2-(4-(6-fluorobenzo[d]thiazol-2-yl)-7-hydroxy-1′-neopentylspiro[indoline-3,4′-piperidin]-1-yl)phenyl)urea] | 0.1 µM | 5.6 nM
CC(C)(C)CN1CCC2(CC1)CN(c1ccccc1NC(=O)Nc1ccc(OC(F)(F)F)cc1)c1c(O)ccc(-c3nc4c(Cl)cccc4s3)c12 [Example 115, 1-(2-(4-(4-Chlorobenzo[d]thiazol-2-yl)-7-hydroxy-1′-neopentylspiro[indoline-3,4′-piperidin]-1-yl)phenyl)-3-(4-(trifluoromethoxy)phenyl)urea] | 1 µM | 22.8 nM
CC(C)(C)CN1CCC2(CC1)CN(c1ccccc1NC(=O)Nc1nc3ccc(F)cc3s1)c1c(O)ccc(-c3nc4c(Cl)cccc4s3)c12 [Example 116, 1-(2-(4-(4-Chlorobenzo[d]thiazol-2-yl)-7-hydroxy-1′-neopentylspiro[indoline-3,4′-piperidin]-1-yl)phenyl)-3-(6-fluorobenzo[b]thiazol-2-yl)urea] | 0.6 µM | 36.2 nM
CC(C)(C)CN1CCC2(CC1)CN(c1ccccc1NC(=O)Nc1nc3ccc(Cl)nc3s1)c1c(O)ccc(-c3nc4c(Cl)cccc4s3)c12 [Example 117, 1-(2-(4-(4-Chlorobenzo[d]thiazol-2-yl)-7-hydroxy-1′-neopentylspiro[indoline-3,4′-piperidin]-1-yl)phenyl)-3-(5-chlorothiazolo[5,4-b]pyridin-2-yl)urea] | 0.6 µM | 29.6 nM
CC(C)(C)CN1CCC2(CC1)CN(c1ccccc1NC(=O)Nc1csc(Cl)n1)c1c(O)ccc(-c3nc4c(Cl)cccc4s3)c12 [Example 118, 1-(2-(4-(4-Chlorobenzo[d]thiazol-2-yl)-7-hydroxy-1′-neopentylspiro[indoline-3,4′-piperidin]-1-yl)phenyl)-3-(2-chlorothiazol-4-yl)urea] | 0.3 µM | 15.5 nM
CC(C)(C)CN1CCC2(CC1)CN(c1ccccc1NC(=O)Nc1csc(Cl)n1)c1c(O)ccc(-c3nc4ccc(Br)cc4s3)c12 [Example 119, 1-(2-(4-(6-Bromobenzo[d]thiazol-2-yl)-7-hydroxy-1′-neopentylspiro[indoline-3,4′-piperidin]-1-yl)phenyl)-3-(2-chlorothiazol-4-yl)urea] | 0.3 µM | 18.4 nM
CC(C)(C)CN1CCC2(CC1)CN(c1ccccc1NC(=O)Nc1csc(C(F)(F)F)n1)c1c(O)ccc(-c3nc4cc(Cl)ccc4s3)c12 [Example 120, 1-(2-(4-(5-Chlorobenzo[d]thiazol-2-yl)-7-hydroxy-1′-neopentylspiro[indoline-3,4′-piperidin]-1-yl)phenyl)-3-(2-(trifluoromethyl)thiazol-4-yl)urea] | 0.6 µM | 28.5 nM
CC(C)(C)CN1CCC2(CC1)CN(c1ccccc1NC(=O)Nc1ccc(OC(F)(F)F)cc1)c1c(O)ccc(-c3nc4ccc(Br)cc4s3)c12 [Example 121, 1-(2-(4-(6-Bromobenzo[d]thiazol-2-yl)-7-hydroxy-1′-neopentylspiro[indoline-3,4′-piperidin]-1-yl)phenyl)-3-(4-(trifluoromethoxy)phenyl)urea] | 0.4 µM | 45.6 nM
CC(C)(C)CN1CCC2(CC1)CN(c1ccccc1NC(=O)Nc1ccc(OC(F)(F)F)cc1)c1c(O)ccc(-c3nc4cccc(Cl)c4s3)c12 [Example 123, 1-(2-(4-(7-Chlorobenzo[d]thiazol-2-yl)-7-hydroxy-1′-neopentylspiro[indoline-3,4′-piperidin]-1-yl)phenyl)-3-(4-(trifluoromethoxy)phenyl)urea] | 0.6 µM | 32.5 nM
